Measurements as given in paper PMC11944910, “N-(9-Acridinyl) Amino Acid Derivatives: Synthesis and In Vitro Evaluation of Anti-Toxoplasma gondii Activity” (Pharmaceutics, 2025).
“And” between values parts separate entries of the source, which are not always exact repeats. Identical values can stand only once.

How the values were obtained:
[1] = MTT cytotoxicity assay on non-infected Vero cells; type: cell-based; conditions: Chlorocebus sabaeus (African green monkey), non-infected Vero cells (ATCC CCL-81), 72 h incubation
Source text: The Vero cell line (ATCC® CCL-81), derived from the kidney tissue of the Green African monkey (Chlorocebus sabaeus), was utilized as a model of non-infected cells in the cytotoxicity assay. The cells were thawed from stocks maintained in liquid nitrogen at the National Reference Laboratory (NRL) for Toxoplasmosis and cultured in D10 medium—Advanced Dulbecco’s Modified Eagle Medium (DMEM) (Thermo Fisher Scientific, Waltham, MA, USA), supplemented with 10% bovine calf serum (BCS) (Sigma-Aldrich, St. Louis, MO, USA), 1% HEPES buffer (Thermo Fisher Scientific, Waltham, MA, USA), and 1% penicillin-streptomycin (Pen/Strep) solution (Thermo Fisher Scientific, Waltham, MA, USA) in T25 and T75 flasks. Depending on confluency, cells were subcultured 1–2 times per week.
The MTT colorimetric assay, a widely used method for assessing the cytotoxicity of newly synthesized compounds, was used to evaluate the toxic effect of AADs on non-infected cells. This assay is based on the ability of metabolically active, viable cells to reduce the yellow 3-(4,5-dimethylthiazol-2-yl)-2,5-diphenyltetrazolium bromide (MTT) reagent to purple formazan. The number of viable cells in the well is directly proportional to the intensity of the resulting color. The MTT assay was performed according to the manufacturer’s instructions using the In Vitro Toxicology Assay Kit (MTT-based, Sigma-Aldrich, St. Louis, MO, USA), with a protocol specifically modified to accommodate the cell line and derivatives analyzed in this study.
In brief, Vero cells were seeded in a 96-well plate, at a density of 25,000 cells per well and incubated for 24 h at 37 °C in a 5% CO2 atmosphere. After the incubation period, the supernatant was removed from each well and replaced with serial dilutions of the analyzed derivatives, as well as with the combination of PYR+SDZ (Sigma-Aldrich, St. Louis, MO, USA) as a positive control. All compounds were investigated in five different concentrations, ranging from 100 μM to 6.25 μM, using a two-fold serial dilution method. The positive control was tested in the range of 0.4 μM + 100 μM to 0.025 μM + 6.25 μM (ratio of PYR+SDZ adjusted according to the literature). In negative control wells, containing only non-infected Vero cells, the discarded supernatant was replaced by a new amount of D10 medium. Blank wells, used to account for any background signal from the colored culture medium, contained only D10 medium. All samples, including controls and blanks, were analyzed in triplicates.
Samples containing Vero cells with added AADs or the positive control were incubated for 72 h. After incubation, the supernatant was discarded, and a new amount of D10 medium (100 μL) was added to each well. The MTT reagent (10 μL, […]) was subsequently added to each well, and the plates were incubated for an additional four hours. After the incubation period, the supernatant was discarded, and the resulting formazan crystals were dissolved using the solubilizing solution from the In Vitro Toxicology Assay Kit. Absorbance was measured at 540 nm using an ELISA plate reader (Multiskan EX, Thermofisher Scientific, Waltham, MA, USA). Data analysis was conducted, and CC50 values (cytotoxic concentration used to lyse/inhibit average of 50% of cells) were obtained using nonlinear regression in GraphPad Prism 10.4.1 (GraphPad Software Inc., La Jolla, CA, USA).

[2] = test system: T. gondii RH strain tachyzoites; experiment: Anti-T. gondii activity screening (viable tachyzoite count, Trypan blue); type: cell-based, Toxoplasma gondii; conditions: 25 µM, 24 h, compared to untreated control
Protocol: T. gondii RH strain tachyzoites were obtained from the NRL for Toxoplasmosis, Institute for Medical Research, Belgrade, Serbia, where the RH strain is regularly maintained via passages using female Swiss-Webster mice twice a week (Ethical license no. 323-07-02445/2014-05/1).
The anti-T. gondii activity of the AADs was evaluated according to previously described methodology, slightly modified by using the DMEM culture medium supplemented with 10% bovine calf serum (BCS) without antibiotics (referred to as modified D10 medium). RH strain T. gondii tachyzoites were harvested from the intraperitoneal exudate of infected mice during routine passage of the strain at the NRL for toxoplasmosis. The sample (intraperitoneal lavage fluid of RH strain-infected mice) was then washed three times using Dulbecco Phosphate Buffered Saline (DPBS) (Thermofisher Scientific, Waltham, MA, USA) and centrifuged at 2.500 rpm for five minutes to obtain a pellet consisting of RH strain tachyzoites only. The pellet was then resuspended, and the parasite count was determined by Trypan blue vital staining, using a Bürker-Türk counting chamber. Tachyzoites were resuspended in an appropriate volume of DMEM culture medium to achieve the required tachyzoite concentration. A suspension of tachyzoites (2 × 10^6 tachyzoites/well, in 100 μL volume) was then seeded into a 96-well microplate and exposed to a 25 µM concentration of 10 AADs, as well as a combination of PYR+SDZ, for 24 h. All samples, including the untreated control consisting of RH strain tachyzoites in a modified D10 culture medium, were tested in triplicates.
After 24 h, 20 µL of sample was collected from each well, mixed with an equal volume of Trypan blue stain, and the number of viable tachyzoites was determined using a Bürker-Türk counting chamber. The reduction in the number of viable tachyzoites compared to untreated control was calculated using the following formula:(1) Reduction %=100%−(median value of number of viable tachyzoites in test wells/median value of number of viable tachyzoites in control wells×100%)

[3] = Solubility by visual inspection; type: physicochemical; conditions: for Solubility on dilution of DMSO solution in pH 7.4 phosphate buffer: diluted up to 10,000 times in pH 7.4 phosphate buffer; for solubility: organic solvent or mixture, DMSO, tested up to 30 mM, read-out: Solubility in DMSO (clear and transparent solutions)
Protocol: Solubility and stability testing was conducted for three of the derivatives, evaluated as potential in vivo testing candidates, namely AAD1, AAD2 and AAD8. Solubility was evaluated using a visual inspection method, checking the clarity and opalescence of different concentrations (up to 30 mM) of dimethyl sulfoxide (DMSO) solutions of the mentioned AADs, as well as of their further dilutions with the pH 7.4 phosphate buffer (100-, 1000- and 10,000-times dilutions).

[4] = Solution stability by HPLC; type: physicochemical; conditions: pH 2 (0.01 M HCl) 2 h; pH 5.5 and pH 7.4 phosphate buffer 4 h
Protocol: Solubility and stability testing was conducted for three of the derivatives, evaluated as potential in vivo testing candidates, namely AAD1, AAD2 and AAD8. The stability of the synthesized AADs was evaluated in mediums with three different pH values: 2 (0.01 M HCl), 5.5 (phosphate buffer) and 7.4 (phosphate buffer). Stability was tested by employing a HPLC method, using an Agilent 1200 chromatograph (Agilent Technologies, Palo Alto, CA, USA) and Zorbax Extend C18 column (Agilent Technologies, Palo Alto, CA, USA). The mobile phase consisted of acetonitrile and water (pH was adjusted to 3.2 using phosphoric acid) at a ratio of 30:70 (v/v) for all three AADs. Column temperature was adjusted to 25 °C, while the flow rate was […]. UV detection was performed at 220, 230, 254, 265 and 280 nm. In short, samples (solutions of the investigated AADs in the appropriate mediums) were injected twice into the HPLC column: the first time right after the preparation of the solutions, and the second time after the stability testing interval—two hours for the pH 2 solution and four hours for the pH 5.5 and 7.4 solutions. At the end of the incubation intervals, the decrease in peak areas and occurrence of additional peaks on chromatograms were analyzed in comparison with the chromatograms obtained right after the preparation of the solutions.

SMILES	CC50 at 72 h [1] [µM]	Viability Reduction of T. gondii Tachyzoites [2]	Solubility on dilution of DMSO solution in pH 7.4 phosphate buffer [3]	solubility [3] [mM]	Solution stability (HPLC peak area, additional peaks) [4]
O=C(O)[C@H](Cc1ccccc1)Nc1c2ccccc2nc2ccccc12 [AAD9, (S) 2-(acridin-9-ylamino)-3-phenylpropanoic acid]	50.2				
O=C(O)CCCCCNc1c2ccccc2nc2ccccc12 [AAD7, 6-(acridin-9-ylamino) hexanoic acid]	93	20.9% and 20.5%			
O=C(O)CCCNc1c2ccccc2nc2ccccc12 [AAD8, 4-(acridin-9-ylamino) butanoic acid]	102	33.3%	maintaining solubility	≥ 30	stable
O=C(O)CCCCCCCNc1c2ccccc2nc2ccccc12 [AAD6, 8-(acridin-9-ylamino) octanoic acid]	154	22.0%			
Cn1cc(CC(Nc2c3ccccc3nc3ccccc23)C(=O)O)c2ccccc21 (stereo not shown) [AAD2]	60.2		maintaining solubility	≥ 30	stable
COC(=O)CCCCCCCNc1c2ccccc2nc2ccccc12 [AAD3]	88.4	15.2%			
COC(=O)C(Cc1c[nH]cn1)Nc1c2ccccc2nc2ccccc12 (stereo not shown) [AAD4]	134	4.5%			
CCOC(=O)CCCCCNc1c2ccccc2nc2ccccc12 [AAD1]	41.7	24.7%	maintaining solubility	≥ 30	stable
O=C(O)CCNc1c2ccccc2nc2ccccc12 [AAD10, 3-(acridin-9-ylamino) propanoic acid]	177	21.9%			
